Laboratory results taken from patent US11129830B2, “PAC-1 combination therapy” (The Board of Trustees of the University of Illinois, priority 2015, dated 2021).
Like-named read-outs stand apart in the source and are kept apart here.

Experiments:
[1] = tested on: panel of nine cell lines of diverse origins and BRAF mutational status; assay: Cellular proliferation (SRB) assay, 5-day IC50, panel of nine cell lines; type: cell-based; details: 120 h, read-out: IC50 values (5 day)
Procedure: (§1) 1000-2000 cells were seeded per well in a 96-well plate and allowed to adhere before DMSO solutions of PAC-1 or vemurafenib were added to each well. Proliferation was assessed by the sulforhodamine B (SRB) assay.

A375 cells = assay: Cellular proliferation (SRB) assay in A375; type: cell-based, human; details: for Emax: A-375, 120 h
Procedure: as §1

A375VR cells [2] = assay: Cellular proliferation (SRB) assay in vemurafenib-resistant A375VR; type: cell-based, human; details: for IC50: 120 h, 5-day
Procedure: To assess if PAC-1 remains active in a cell line that has acquired resistance to vemurafenib, a vemurafenib-resistant A375VR cell line was generated by growing A375 parental cell line in sequentially higher concentrations of vemurafenib (0.5 μM to 1.0 μM) for 2 months. To determine the mechanism of resistance of A375VR, genes for MEK1/2, NRAS and AKT were sequenced, but no commonly reported mutations that would confer resistance were found (Rizos et al., Clinical Cancer Research 2014; 20:1965-77). Similarly, splice variant of the ^V600EBRAF mRNA was also not observed. Through qPCR, A375VR cells have approximately 3-fold higher levels of MDR1 mRNA compared to A375.
as §1

[3] = tested on: PARP-1 cleavage in A375 cells; assay: PARP-1 cleavage Western blot in A375; type: cell-based, human; details: PAC-1 or PAC-1a 12 μM, vemurafenib 10 μM; up to 24 h
Procedure: (§2) Cells and tumor tissues were lysed using RIPA buffer containing phosphatase and protease inhibitor cocktail (Calbiochem). The protein concentration of each sample was determined by the BCA assay (Pierce). Cell lysates containing 20 μg of protein was loaded into each lane of 4-20% gradient gels (BioRad) for SDS-PAGE. Proteins were transferred onto PDVF membrane for Western blot analysis.

[4] = tested on: PARP-1 cleavage in SK-MEL-5 cells; assay: PARP-1 cleavage Western blot in SK-MEL-5; type: cell-based, human; details: PAC-1 12 μM, vemurafenib 10 μM
Procedure: as §2

[5] = tested on: PARP-1 cleavage in UACC-62 cells; assay: PARP-1 cleavage Western blot in UACC-62; type: cell-based, human; details: PAC-1 12 μM, vemurafenib 10 μM
Procedure: as §2

A375 and SK-MEL-5 cells = assay: Long-term (up to 30 days) continuous treatment, cell regrowth; type: cell-based, human; details: PAC-1 4 μM or vemurafenib 10 μM
Procedure: We therefore hypothesized that long term treatment with vemurafenib would lead to re-growth of cancer cells, while treatment with PAC-1 should prevent re-growth. To investigate this hypothesis, A375 and SK-MEL-5 cells were plated at low densities and treated continuously with PAC-1 (4 μM) or vemurafenib (10 μM) for up to 30 days. […] However, in wells treated with PAC-1, no regrowth was observed even after 30 days (FIG. 5B). Thus, consistent with the higher Emax value, PAC-1 is able to quantitatively kill cells thereby preventing regrowth.

A375 or UACC-62 cells = assay: In vitro resistance assay (SRB, 5, 10 and 20 days); type: cell-based, human; details: for cell number compared to the control, after 5 days: vemurafenib 5 μM or 10 μM; for cell death on day 10: A375, alone or with 1 μM PAC-1
Procedure: The next day, vemurafenib (5 or 10 μM) or PAC-1 (1 μM) were treated in six technical replicates for 5, 10 and 20 days. Fresh media and compounds were added every 2-3 days for the duration of the study. At the end of 5, 10 or 20 days, the wells were fixed with 10% cold trichloroacetic acid for 1 h at 4° C. The wells were then washed, allowed to dry and stained with 0.5% SRB dye for 30 min at room temperature. The wells were then washed with 0.1% acetic acid and allowed to dry. At this point, images of the plates were taken with GelDoc XR (BioRad). Finally, 200 μL of 10 mM Tris base (pH >10.4) was added into well and the absorbance at 510 nm were read using SpectraMax Plus (Molecular Devices). The absorbance at 510 nm is plotted against the days post treatment as an indication of cell proliferation over the time course of the experiment.

[6] = tested on: caspase-3/-7 activity in A375 cells; details: PAC-1 12 μM, vemurafenib 10 μM; combination increase as early as 7 h post-treatment
Procedure: (§3) 5,000-8,000 cells were plated in 96 well plates and allowed to adhere. […] Plates were then assessed for caspase-3/7 activity via addition of bifunctional lysis and activity buffer (200 mM HEPES, 400 mM NaCl, 40 mM DTT, 0.4 mM EDTA, 1% Triton-X, pH 7.4) with 20 μM of Ac-DEVD-AFC (SEQ ID NO: 20) (Cayman Chemicals) as the fluorogenic substrate (λex=400 nm, λem=505 nm). Plates were pre-incubated at 37° C. at 30 min in the Synergy multi-mode reader (BioTek) then read for 30 min at 3 min intervals. The slopes for each well were calculated. Activity is expresses as normalized to minimal and maximal activity observed within the assay.

[7] = tested on: caspase-3/-7 activity in SK-MEL-5 cells; details: PAC-1 12 μM, vemurafenib 10 μM
Procedure: as §3

[8] = tested on: caspase-3/-7 activity in UACC-62 cells; details: PAC-1 12 μM, vemurafenib 10 μM
Procedure: as §3

[9] = tested on: caspase-3/-7 activity in A375 and UACC-62 cells; details: 24 h; PAC-1 12 μM, vemurafenib 10 μM, trametinib 100 nM
Procedure: (A) Shown is percent apoptotic cell death after 24 h of treatment. […] Activity is expressed as normalized to the positive control. Dashed horizontal lines represent the level of cell death expected from a mere additive effect of the two agents. Values are reported as mean±SEM of at least three experiments.
5,000-8,000 cells were plated in 96 well plates and allowed to adhere. Cells were treated with 1 μM of staurosporine for 24 h or with 13 μM of raptinal (Palchaudhuri et al., Cell Rep 2015; 13:2027-36) for 3 h as positive control, DMSO as negative control and indicated concentrations of PAC-1 and vemurafenib for 0, 2, 4, 7, 10, 12, 16, 20 or 24 h. Plates were then assessed for caspase-3/7 activity via addition of bifunctional lysis and activity buffer (200 mM HEPES, 400 mM NaCl, 40 mM DTT, 0.4 mM EDTA, 1% Triton-X, pH 7.4) with 20 μM of Ac-DEVD-AFC (SEQ ID NO: 20) (Cayman Chemicals) as the fluorogenic substrate (λex=400 nm, λem=505 nm). Plates were pre-incubated at 37° C. at 30 min in the Synergy multi-mode reader (BioTek) then read for 30 min at 3 min intervals. The slopes for each well were calculated. Activity is expresses as normalized to minimal and maximal activity observed within the assay.

A375VR xenograft tumors = details: nude mice, 15 days; vemurafenib 10 mg/kg, PAC-1 100 mg/kg
Procedure: All animal studies were performed in accordance with UIUC IACUC guidelines (protocol no. 14292). 0.1 mL of A375 or A375VR in 1:1 DMEM:matrigel (Corning) was injected into the right flank of 6-7 (A375) or 5 (A375VR) week old female athymic nude mice (Charles River). In the both models, the mice were randomized into four groups: control, 100 mg/kg PAC-1, 10 mg/kg vemurafenib, and the combination of 100 mg/kg PAC-1 and 10 mg/kg vemurafenib (n=8). Initial tumor volume measurements were taken and dosing was initiated for a period of 15 days. Vemurafenib was formulated as 5% DMSO in 1% methyl cellulose and given twice daily by oral gavage (p.o.). PAC-1 was formulated in 200 mg/mL hydroxypropyl-β-cyclodextrin at pH 5.5 and given by intraperitoneal (i.p.) injection. Tumor length and width measurements were taken three times a week and volume was calculated as 0.52*L*W^2. At the end of the study, the mice were euthanized and tumors were excised. The tumors were weighed and used for Western blot and immunohistochemistry.

A375 xenograft tumors = assay: A375 subcutaneous mouse xenograft model of melanoma
Procedure: In this model, nude mice were inoculated subcutaneously with A375 cells, and after allowing the tumors to grow, mice were randomized based upon tumor volume into four groups [F=0.03<Fcritical(3.01)] and dosed with PAC-1, vemurafenib, or the combination for 15 days.
0.1 mL of A375 or A375VR in 1:1 DMEM:matrigel (Corning) was injected into the right flank of 6-7 (A375) or 5 (A375VR) week old female athymic nude mice (Charles River). In the both models, the mice were randomized into four groups: control, 100 mg/kg PAC-1, 10 mg/kg vemurafenib, and the combination of 100 mg/kg PAC-1 and 10 mg/kg vemurafenib (n=8). Initial tumor volume measurements were taken and dosing was initiated for a period of 15 days. Vemurafenib was formulated as 5% DMSO in 1% methyl cellulose and given twice daily by oral gavage (p.o.). PAC-1 was formulated in 200 mg/mL hydroxypropyl-β-cyclodextrin at pH 5.5 and given by intraperitoneal (i.p.) injection. Tumor length and width measurements were taken three times a week and volume was calculated as 0.52*L*W^2. At the end of the study, the mice were euthanized and tumors were excised. The tumors were weighed and used for Western blot and immunohistochemistry.

[10] = tested on: ERK1/2 phosphorylation in A375 cells; assay: ERK1/2 phosphorylation Western blot in A375; type: cell-based, human
Procedure: as §2

[11] = tested on: ERK1/2 phosphorylation in SK-MEL-5 cells; assay: ERK1/2 phosphorylation Western blot in SK-MEL-5; type: cell-based, human; details: 24 h; vemurafenib 0.5 μM and 1 μM
Procedure: as §2

[12] = tested on: ERK1/2 phosphorylation in UACC-62 cells; assay: ERK1/2 phosphorylation Western blot in UACC-62; type: cell-based, human; details: 24 h; vemurafenib 0.5 μM and 1 μM
Procedure: as §2

[13] = tested on: ERK1/2 phosphorylation in WTBRAF cell lines; assay: ERK1/2 phosphorylation Western blot in WTBRAF cell lines; type: cell-based; details: 24 h; even at high concentrations (30 μM)
Procedure: as §2

[14] = tested on: ERK1/2 phosphorylation in A375VR cells; assay: ERK1/2 phosphorylation Western blot in A375VR; type: cell-based, human; details: 2 h; vemurafenib 0.5 or 1 μM
Procedure: as §2

[15] = tested on: melanoma patients with the V600E BRAF protein; details: literature; cited from earlier work
A375VR cells [16] = assay: Annexin V/PI apoptosis in A375VR; type: cell-based, human; details: 24 h; in combination with low concentrations of vemurafenib
Procedure: FIGS. 13A-C. Effect of the PAC-1 and vemurafenib combination in A375VR cells. (A) Shown is percent apoptotic cell death (assessed by Annexin V/PI staining and flow cytometry) induced after 24 h of treatment. (B) The apoptotic cell death observed in (A) is greater than that predicted by the Bliss independent model. The excess cell death is calculated as [f(observed, apoptotic)−(f(PAC-1, apoptotic)+f(vemurafenib, apoptotic)−f(PAC-1, apoptotic)*f(vemurafenib, apoptotic))]*100%. […] (C) The synergistic effect of PAC-1 and vemurafenib in activating apoptosis in A375VR after 24 h.

SMILES | IC50 [1] | Emax (percent cell death induced by high concentrations of compound) (A375 cells; A375 cells, after 5 days) | IC50 (A375VR cells [2]; Homo sapiens, A375VR) | PARP-1 cleavage [3] | PARP-1 cleavage [4] | PARP-1 cleavage [5] | time of continuous treatment to regrowth of cells (A375 and SK-MEL-5 cells) | cell number compared to the control, after 5 days (A375 or UACC-62 cells; A375 and UACC-62, PAC-1 1 μM) | caspase-3 activity [6] | caspase-3/-7 enzymatic activity [7] | caspase-3/-7 enzymatic activity [8] | caspase-3/-7 activity [9] | antitumor effect (tumor volume compared to untreated control) (A375VR xenograft tumors) | further results
C=CCc1cccc(/C=N/NC(=O)CN2CCN(Cc3ccccc3)CC2)c1O [PAC-1, 2-(4-benzylpiperazin-1-yl)-N-[(2-hydroxy-3-prop-2-enyl-phenyl)methylideneamino]acetamide] | 1000 to 4000 nM | ~100% | 2400 nM | little effect | little effect | little effect | > 30 days | significant reduction in cell number | negligible increases | little effect | little effect | little effect | does not exert any antitumor affect | Emax (A375 cells; Homo sapiens, read-out: Emax (percent cell death induced by high concentrations of compound), A375 cells, after 5 days): 99.4 ± 0.7%; IC50 (A375 cells; Homo sapiens, A-375, read-out: IC50 value): 1200 nM; difference from the control on day 10 (A375 or UACC-62 cells; PAC-1 1 μM): no observable difference; reduction in tumor mass and volume compared to untreated control (A375 xenograft tumors; PAC-1 100 mg/kg once daily i.p., 15 days): minimal reduction
CCCS(=O)(=O)Nc1ccc(F)c(C(=O)c2c[nH]c3ncc(-c4ccc(Cl)cc4)cc23)c1F [vemurafenib] | 200 to 550 nM | ~97% | 1500 nM | little effect | little effect | little effect | ≥ 20 days | significant reduction in cell number | negligible increases | little effect | little effect | little effect | does not exert any antitumor affect | Emax (A375 cells; Homo sapiens, A375 cells, after 5 days, read-out: Emax (percent cell death induced by high concentrations of compound)): 96.8 ± 0.3%; A375 cells insensitive to compound (A375 cells; after 5 days, from Emax): ~3%; loss of potency compared to parental A375 (A375VR cells [2]; 5-day IC50, A375VR vs A375): 12 fold; Emax lower than the parental A375 cell line (A375VR cells [2]; A375VR vs A375): 14%; Emax (A375VR cells [2]; Homo sapiens, A375VR): 79 ± 6.3%; inhibition of ERK1/2 phosphorylation ([10]; 2 h, vemurafenib 0.5 or 1 μM, parental A375): complete inhibition; phospho-ERK1/2 bands ([10]; 24 h, vemurafenib 0.5 and 1.0 μM): not observed; phosphorylation of ERK1/2 [11]: inhibited the phosphorylation of ERK1/2; phosphorylation of ERK1/2 [12]: inhibited the phosphorylation of ERK1/2; inhibition of ERK1/2 phosphorylation [13]: not observed; complete inhibition of ERK1/2 phosphorylation [14]: not observed; cell death on day 10 (A375 or UACC-62 cells; vemurafenib 5 μM): 89.4±1.4%; cell death on day 10 (A375 or UACC-62 cells; vemurafenib 10 μM): 93.2±1.1%; regrowth of colonies after 20 days of treatment (A375 or UACC-62 cells; A375 and UACC-62, vemurafenib 5 or 10 μM, PAC-1 1 μM): significant regrowth of colonies; extension of progression-free survival [15]: 5.3 months; reduction in tumor volume compared to control (A375 xenograft tumors; nude mice, dosed 15 days, PAC-1 100 mg/kg once daily i.p., vemurafenib 10 mg/kg twice daily p.o.): 53%; mice having comparable tumor mass as the control mice (A375 xenograft tumors; vemurafenib 10 mg/kg twice daily p.o., 15 days): 3 out of 8
O=C(CN1CCN(Cc2ccccc2)CC1)N/N=C/c1ccccc1 [PAC-1a] |  |  |  |  |  |  |  |  |  |  |  |  |  | proportion of cells undergoing apoptosis (A375VR cells [16]): abolished
